Counter-ions that a name gives are not always drawn.

human recombinant p56^lck, sequence (P06239 whole entry): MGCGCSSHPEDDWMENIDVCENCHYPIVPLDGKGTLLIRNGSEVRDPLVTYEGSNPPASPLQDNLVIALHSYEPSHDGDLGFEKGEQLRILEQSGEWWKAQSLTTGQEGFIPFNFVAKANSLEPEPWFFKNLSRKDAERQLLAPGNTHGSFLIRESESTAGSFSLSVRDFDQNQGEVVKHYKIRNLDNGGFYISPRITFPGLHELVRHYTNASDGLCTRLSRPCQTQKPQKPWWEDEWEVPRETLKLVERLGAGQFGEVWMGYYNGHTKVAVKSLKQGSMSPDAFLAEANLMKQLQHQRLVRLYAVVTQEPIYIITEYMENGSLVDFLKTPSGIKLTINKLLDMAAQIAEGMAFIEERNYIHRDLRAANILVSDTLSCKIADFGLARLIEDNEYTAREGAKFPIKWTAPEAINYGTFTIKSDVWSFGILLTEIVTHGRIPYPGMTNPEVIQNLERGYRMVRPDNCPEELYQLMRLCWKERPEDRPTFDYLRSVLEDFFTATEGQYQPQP

The assay deals with human recombinant p56^lck (Homo sapiens, UniProt P06239). Put plainly: Inhibition of T-cell tyrosine kinase p56^lck (incorporation of 33P from [γ-^33 P] ATP into peptide substrate). In kind it is biochemical. The settings on record: 10 μM ATP, 20 μM peptide substrate, 30° C., 60 minutes, pH 7.5. An excerpt:
As mentioned earlier, the compounds of formula I, the pharmaceutically acceptable salts of basic compounds of formula I with acids, and the pharmaceutically acceptable salts of acidic compounds of formula I with bases, are all inhibitors of the T-cell tyrosine kinase p56^lck which will down-regulate T-cell activation leading to immunosuppression and decrease inflammation. Therefore, the compounds of the invention are anti-inflammatory agents which can be used in combating the inflammatory condition which occurs in various diseases, as well as immunosuppressives which can be used, for example, for preventing graft rejection in transplantation therapy.
Reaction mixtures (25 μl) containing human recombinant p56^lck, 10 mM MnCl2, 10-μM ATP, 0.2 mM sodium vanadate, 20 μM peptide substrate (AlaGluGluGluIleTyr-GlyGlu-PheGluAlaLysLysLysLys, [γ-^33 P] ATP (1000-2000 cpm/pmol) in 25 mM HEPES buffer (pH 7.5) and 0.1% Triton X-100 are incubated at 30° C. for 60 minutes and the reaction is then stopped by the addition of 10 μl of 2% orthophosphoric acid. Radiolabelled peptide is separated from unreacted [γ-^33 P] ATP by filtration through Millipore Multiscreen phosphocellulose cation exchange paper filters. Bound peptide is washed with 0.5% orthophosphoric acid and incorporated radioactivity is determined by scintillation spectrometry.
The degree of enzyme blockade at each concentration of test compound is calculated from the following equation: [formula]
The IC50 value is that concentration of test compound which reduces by 50% the protein kinase-induced incorporation of the radiolabel under the test conditions described earlier.
For `NCCc1cccc(N2C(=O)N(c3c(Cl)cccc3Cl)Cc3cnc(Nc4ccccc4)nc32)c1` [Example 38, 1-[3-(2-aminoethyl)phenyl]-7-anilino-3-(2,6-dichlorophenyl)-3,4-dihydropyrimido[4,5-d]pyrimidin-2(1H)-one], the concentration for half-maximal inhibition (IC50) came to 0.03 nM.
The figure for `CCN(CC)CCOc1ccc(Nc2ncc3c(n2)N(Cc2cccnc2)C(=O)N(c2c(Cl)cccc2Cl)C3)cc1` [Example 10, 3-(2,6-dichlorophenyl)-7-[4-[2-(diethylamino)ethoxy]anilino]-3,4-dihydro-1-[(3-pyridyl)-methyl]pyrimido[4,5-d]pyrimidin-2(1H)-one trifluoroacetate] is 19 nM.
The figure for `O=C1N(c2ccccc2Br)Cc2cnc(Nc3ccccc3)nc2N1c1ccc(CO)cc1` [Example 63, 7-anilino-3-(2-bromophenyl)-3,4-dihydro-1-[4-(hydroxymethyl)phenyl]pyrimido[4,5-d]pyrimidin-2(1H)-one] is 17 nM.
As for `CCN(CC)CCOc1ccc(Nc2ncc3c(n2)N(c2cccc(CCN(C)C)c2)C(=O)N(c2ccc(Cl)cc2Cl)C3)cc1` [Example 82, 3-(2,4-dichlorophenyl)-7-[4-[2-(diethylamino)ethoxy]anilino]-3,4-dihydro-1-[3-(2-(dimethylamino)ethyl)phenyl]pyrimido[4,5-d]pyrimidin-2(1H)-one], the 50% inhibitory concentration (IC50) stood at 0.4 nM.
For the compound `NCCc1cccc(N2C(=O)N(c3ccccc3Br)Cc3cnc(Nc4ccccc4)nc32)c1` [Example 50, 1-[3-(2-aminoethyl)phenyl]-7-anilino-3-(2-bromophenyl)-3,4-dihydropyrimido[4,5-d]pyrimidin-2(1H)-one], the IC50 is 6 nM.
Next, `CCC(CC)(CN)c1cccc(N2C(=O)N(c3c(Cl)cccc3Cl)Cc3cnc(Nc4ccccc4)nc32)c1` [Example 85, 1-[3-(1-aminomethyl-1-ethyl-propyl)-phenyl]-3-(2,6-dichloro-phenyl)-7-phenylamino-3,4-dihydro-pyrimido[4,5-d]pyrimidin-2(1H)-one trifluoroacetate]: 7 nM.
The figure for `CCN(CC)CCOc1ccc(Nc2ncc3c(n2)N(C)C(=O)N(c2c(Cl)cccc2Cl)C3)cc1` [Example 1, 3-(2,6-dichlorophenyl)-7-[4-[2-(diethylamino)ethoxy]anilino]-3,4-dihydro-1-methylpyrimido[4,5-d]pyrimidin-2(1H)-one] is 10 nM; for `O=C1N(c2c(Cl)cccc2Cl)Cc2cnc(Nc3ccncc3)nc2N1c1ccccc1` [Example 22, 3-(2,6-dichlorophenyl)-3,4-dihydro-1-phenyl-7-[(4-pyridyl)amino]pyrimido[4,5-d]pyrimidin-2(1H)-one] it is 265 nM.
As to `CCN(CC)CCOc1ccc(Nc2ncc3c(n2)N(c2ccccc2)C(=O)N(c2c(Cl)cccc2Cl)C3)cc1` [Example 7, 3-(2,6-dichlorophenyl)-7-[4-[2-(diethylamino)ethoxy]anilino]-3,4-dihydro-1-phenylpyrimido[4,5-d]pyrimidin-2(1H)-one], the IC50 turned out to be 0.6 nM.

The values above are taken from US6150373A, “Bicyclic nitrogen heterocycles” (Hoffmann-La Roche Inc., priority 1998, dated 2000).
